Data reported in patent US8354518B2, “HCV replicons containing NS5B from genotype 2B” (Merck Sharp & Dohme Corp., priority 2003, dated 2013).

What was measured:
Format in all cases: cell-based, Hepatitis C virus (HCV)
Con1-2bM31I = assay: β-lactamase reporter replicon assay, Con1-2bM31I chimeric replicon; conditions: Con1-2bM31I replicon in MR2 (Huh7 derived) cells, two days with drug, percent of DMSO control, 4 parameter fit
Experimental: (§1) Selection of persistently replication cells lines expressing β-lactamase, using bla:2b chimeric replicons each harboring a different mutation (N24S, M31I, I392L) defined in the Neo^r selection studies described above, was performed in the enhanced replication Huh7 derived cell line MR2. (Murray et al., J. of Virology, 77:2928-2935, 2003.) To generate RNA for transfection, plasmids were linearized by digestion of an XbaI site distal to the replicon sequences. RNA was generated using MEGAscript™ (Ambion, Austin, Tex.) and quantitated by UV absorbance.
(§2) MR2 was maintained in Dulbecco's modified Eagle's medium (DMEM) supplemented with 10% fetal bovine serum, nonessential amino acids, 2 mM GlutaMAX, and Penn/Strep (Invitrogen Corp., Carlsbad, Calif.). Cells were seeded the night prior to transfection at a density of 300,000 cells per well in a 6-well dish. A mixture of 5 μg RNA, 12 μl of DMRE-C (Invitrogen Corp., Carlsbad, Calif.), and 2 ml of Opti-Mem (Invitrogen Corp., Carlsbad, Calif.) media was prepared and allowed to sit for 10 minutes. During this time media was removed from the MR2 cells, cells were washed once with Opti-Mem, then the RNA:DMRE-C mixture was added dropwise, and incubated for ˜8 hours. Transfection media was removed by aspiration, and replaced with 2 ml DMEM.

BK-2bM31I = assay: β-lactamase reporter replicon assay, BK-2bM31I chimeric replicon; conditions: BK-2bM31I replicon in MR2 (Huh7 derived) cells, two days with drug, percent of DMSO control, 4 parameter fit
Experimental: as §1, §2

BK NS5a268S-2bN24S = assay: β-lactamase reporter replicon assay, BK NS5a268S-2bN24S chimeric replicon; conditions: BK NS5a268S-2bN24S replicon
Experimental: as §1, with “absorbance. […]” for “absorbance.”
(§3) The next morning cells were expanded into two T75 flasks and grown for an additional three days. A duplicate well for each replicon construct was analyzed for β-lactamase activity to verify that the transfection efficiency was >90%.
(§4) On day 4 cells from one flask were collected, counted, and seeded into a 96 well Cytostar plate at a density of 7,500 cells/well in the presence of 1 μM clavulonic acid. […] Simultaneously, the other flasks were analyzed for β-lactamase activity to verify both that activity from a non-replicating control sub-genomic replicon was undetectable, and establish the day 4 replication activity of the test replicons. […] Cells with drug were incubated for two days, and analyzed as described in Example 4. […]

BK-2b N24S/L392I = assay: β-lactamase reporter replicon assay, BK-2b N24S/L392I chimeric replicon; conditions: BK-2b N24S/L392I replicon
Experimental: as §1, with “absorbance. […]” for “absorbance.”
as §3, §4

[1] = test system: bk:2B bla chimeric replicon bearing change at residue 24; assay: β-lactamase reporter replicon assay, bk:2B bla chimeric replicon with change at residue 24; conditions: at the EC95 for 2′C-methyladenosine; replicon not robust enough for IC50 determination
Experimental: as §1
(§5) On day 4 cells from one flask were collected, counted, and seeded into a 96 well Cytostar plate at a density of 7,500 cells/well in the presence of 1 μM clavulonic acid. […] Simultaneously, the other flasks were analyzed for β-lactamase activity to verify both that activity from a non-replicating control sub-genomic replicon was undetectable, and establish the day 4 replication activity of the test replicons. […] Cells with drug were incubated for two days, and analyzed as described in Example 4.
(§6) Medium was removed by aspiration and cells were stained for 2 hours with CCF4-AM (Invitrogen Corp., Carlsbad, Calif.) in DMEM supplemented with 25 mM HEPES, pH 8.0. Fluorescence due to β-lactamase activity was measured through excitation at 405 nm, followed by measurement of the emission at 460 nm using a CytoFluor 4000 fluorescence plate reader. […]

[2] = test system: bk:2B bla chimeric replicon bearing change at residue 392; assay: β-lactamase reporter replicon assay, bk:2B bla chimeric replicon with change at residue 392; conditions: at the EC95 for 2′C-methyladenosine; replicon not robust enough for IC50 determination
Experimental: as §1, §5, §6

SMILES: C[C@@]1(O)[C@H](O)[C@@H](CO)O[C@H]1n1cnc2c(N)ncnc21 [2′C-methyladenosine]
- EC50 (Con1-2bM31I): 407 nM
- EC50 (BK-2bM31I): 667 nM
- EC50 (BK NS5a268S-2bN24S): 982 nM
- EC50 (BK-2b N24S/L392I): 185 nM
- inhibition of limited replication [1]: could be inhibited
- inhibition of limited replication [2]: could be inhibited
